Source: PMC11729550, “Discovery of indole analogue Tc3 as a potent pyroptosis inducer and identification of its combination strategy against hepatic carcinoma” (Theranostics, 2025)
Like-named read-outs stand apart in the source and are kept apart here.

Key:
SK-Hep1 cells = assay: Anti-tumor activity assay (IC50 value), cells counted after three days; details: read-out: IC50 SK-Hep1
Experimental: (§1) For half maximal inhibitory concentrations (IC50) analysis, the hepatic carcinoma cells (HepG2, SK-Hep1 and PLC-PRF5) were seeded in 24-well plates respectively, then treated with drugs at concentration gradient for three days. The cells were counted with hemocytometer. […] A is the cell quantity of the control group and B is the cell quantity of the drug treated group. The cell inhibition rate was transformed using its logarithm. And the drug IC50 value were calculated by Graphpad Prsim 9 software with curve fitting of the drug concentration and log (cell inhibition rate).

HepG2 cells = assay: as above; details: for IC50: read-out: IC50 HepG2; for fold increase in cellular potency: HepG2, compared to T1;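 for all read-outs here: HepG2 cells exposed to a drug concentration series for 3 days, then counted with a hemocytometer, inhibition relative to untreated control cell number, IC50 obtained by curve fitting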
Experimental: as §1

GSDME = assay: Western blot of GSDME activation; assay type: cell-based, human; details: HepG2 and SK-Hep1 cells
Experimental: The whole-cell protein was extracted by RIPA lysis buffer contained with protease and phosphatase inhibitor cocktail (MCE, HY-K0010) from cells treated by indole analogues. Proteins were separated by sodium dodecyl sulfate-polyacrylamide gel electrophoresis (SDS-PAGE) gel, and then blotted onto polyvinylidene difluoride membrane (Millipore, IPVH00010). The membranes were incubated with the primary antibodies and the following horseradish peroxidase-conjugated (HRP) secondary antibodies. Next, membranes were washed and developed by ECL regent (Millipore, WBKLS0500).

PLC-PRF5 cells = assay: Anti-tumor activity assay (IC50 value), cells counted after three days; assay type: cell-based; details: Homo sapiens, PLC-PRF-5, 72 h
Description: The cells were counted with hemocytometer.

HepG2 and SK-Hep1 cells = assay: LDH release assay; assay type: cell-based, human; details: 0-4 μM, three days
Experimental: The hepatic carcinoma cells were seeded in 96-well plates and treated with indole analogues for three days. Of note, the compounds were added into DMEM medium supplemented with 1% FBS. The cellular supernatant was collected for LDH release detection by using LDH cytotoxicity assay kit (Beyotime, C0016). Statistical analysis was combined with the cell viability data tested by WST-1 cell proliferation and cytotoxicity assay kit (Beyotime, C0035).

[1] = Liver microsome metabolic stability assay; details: microsomes
Experimental: The reaction media contained liver microsomes (0.5 mg/mL), 1.0 mM β-nicotinamide adenine dinucleotide phosphate (β-NADPH), 3 mM MgCl2 phosphate buffer. Microsomal suspensions were pre-incubated with Tc3 for 3 min at 37℃. The reaction was initiated with the addition of β-NADPH and samples were collected at 0, 5, 15, 30 and 60 min. The negative control was excluded of β-NADPH. Midazolam was incubated similarly as a positive control substrate. At each time point, an aliquot was mixed acetonitrile. Samples were centrifuged and then supernatant was mixed with ultrapure water for LC-MS/MS analysis.

SMILES | IC50 (HepG2 cells; Homo sapiens, HepG2, 72 h) | also measured
COc1cc2nccc(Oc3ccc(NC(=O)C4(C(=O)Nc5ccc(F)cc5)CC4)cc3)c2cc1OC [Cabozantinib, reference compound] | 2.64 ± 0.85 µM | IC50 (SK-Hep1 cells; Homo sapiens, SK-HEP1, 72 h): 2.26 ± 0.32 µM
NCCCn1cc(/C=C2\SC(=O)N(Cc3ccc(F)cc3)C2=O)c2ccccc21 [Compound T1] | 15.9 µM | 
Nc1ccn([C@@H]2O[C@H](CO)[C@@H](O)C2(F)F)c(=O)n1 [Gemcitabine, reference compound] | 0.14 ± 0.01 µM | IC50 (SK-Hep1 cells; Homo sapiens, SK-HEP1, 72 h): 0.04 ± 0.003 µM
COc1cc2nccc(Oc3ccc(NC(=O)NC4CC4)c(Cl)c3)c2cc1C(N)=O [Lenvatinib, reference compound] | 19.8 ± 1.43 µM | IC50 (SK-Hep1 cells; Homo sapiens, SK-HEP1, 72 h): 12.4 ± 1.32 µM
CNC(=O)c1cc(Oc2ccc(NC(=O)Nc3ccc(Cl)c(C(F)(F)F)c3)c(F)c2)ccn1 [Regorafenib, reference compound] | 4.21 ± 0.33 µM | IC50 (SK-Hep1 cells; Homo sapiens, SK-HEP1, 72 h): 4.23 ± 0.64 µM
CNC(=O)c1cc(Oc2ccc(NC(=O)Nc3ccc(Cl)c(C(F)(F)F)c3)cc2)ccn1 [Sorafenib, reference compound] |  | IC50 (SK-Hep1 cells; 72 h): 4.4 µM; IC50 (HepG2 cells; 72 h): 6.06 µM
O=C(NCCCn1cc(/C=C2\SC(=O)N(Cc3ccc(F)cc3)C2=O)c2ccccc21)C1CCCC1 [Ta1] | 27.7 µM | 
CC(C)C(=O)NCCCn1cc(/C=C2\SC(=O)N(Cc3ccc(F)cc3)C2=O)c2ccccc21 [Ta3] | > 50 µM | 
CC(C)CCC(=O)NCCCn1cc(/C=C2\SC(=O)N(Cc3ccc(F)cc3)C2=O)c2ccccc21 [Ta4] | > 100 µM | 
CCCCCCCC(=O)NCCCn1cc(/C=C2\SC(=O)N(Cc3ccc(F)cc3)C2=O)c2ccccc21 [Ta5] | > 100 µM | 
C[C@H](N)C(=O)NCCCn1cc(/C=C2\SC(=O)N(Cc3ccc(F)cc3)C2=O)c2ccccc21 [Tb1] | 7.97 ± 0.3 µM | 
CC(C)[C@H](N)C(=O)NCCCn1cc(/C=C2\SC(=O)N(Cc3ccc(F)cc3)C2=O)c2ccccc21 [Tb2] | 6.74 ± 0.8 µM | 
O=C(NCCCn1cc(/C=C2\SC(=O)N(Cc3ccc(F)cc3)C2=O)c2ccccc21)[C@@H]1CCCN1 [Tb3] | 6.2 µM | 
O=C(NCCCn1cc(/C=C2\SC(=O)N(Cc3ccc(F)cc3)C2=O)c2cc(Br)ccc21)[C@@H]1CCCN1 [Tb4] | 9.23 µM | 
N[C@@H](Cc1ccc(O)cc1)C(=O)NCCCn1cc(/C=C2\SC(=O)N(Cc3ccc(F)cc3)C2=O)c2cc(Br)ccc21 [Tb5] | 11.3 µM | 
CSCC[C@H](N)C(=O)NCCCn1cc(/C=C2\SC(=O)N(Cc3ccc(F)cc3)C2=O)c2cc(Br)ccc21 [Tb6] | 6.31 ± 0.35 µM | 

SMILES | IC50 (HepG2 cells; Homo sapiens, HepG2, 72 h) | also measured
CC[C@H](C)[C@H](N)C(=O)NCCCn1cc(/C=C2\SC(=O)N(Cc3ccc(F)cc3)C2=O)c2cc(Br)ccc21 [Tb7] | 1.79 µM | GSDME activation / cleavage (western blotting) (GSDME): did not activate GSDME; IC50 (SK-Hep1 cells; Homo sapiens, SK-HEP1, 72 h): 2.21 ± 0.17 µM; IC50 (PLC-PRF5 cells): 1.26 ± 0.31 µM; LDH release levels (HepG2 and SK-Hep1 cells): increased; fold increase in cellular potency (HepG2 cells): ~9 fold
COc1ccc2c(c1)c(/C=C1\SC(=O)N(Cc3ccc(F)cc3)C1=O)cn2CCCNC(=O)[C@@H](N)Cc1ccc(O)cc1 [Tb8] | 6.92 ± 1.21 µM | 
COc1ccc2c(c1)c(/C=C1\SC(=O)N(Cc3ccc(F)cc3)C1=O)cn2CCCNC(=O)[C@@H]1CCCN1 [Tb9] | 7.47 µM | 
NCCCn1cc(/C=C2\S/C(=N\c3ccc(N4CCOCC4)cc3)N(Cc3ccc(F)cc3)C2=O)c2ccccc21 [Tc1] | 5.13 µM | GSDME activation / cleavage (western blotting) (GSDME): did not activate GSDME; IC50 (SK-Hep1 cells; Homo sapiens, SK-HEP1, 72 h): 2.87 ± 0.61 µM; IC50 (PLC-PRF5 cells): 2.71 ± 0.12 µM; LDH release levels (HepG2 and SK-Hep1 cells): increased; fold increase in cellular potency (HepG2 cells): ~ 3 fold
CSCC[C@H](N)C(=O)NCCCn1cc(/C=C2\S/C(=N\c3ccc(N4CCOCC4)cc3)N(Cc3ccc(F)cc3)C2=O)c2ccccc21 [Tc2] | 8.77 µM | fold increase in cellular potency (HepG2 cells): ~2 fold
O=C(NCCCn1cc(/C=C2\S/C(=N\c3ccc(N4CCOCC4)cc3)N(Cc3ccc(F)cc3)C2=O)c2ccccc21)[C@@H]1CCCN1 [Tc4] | 2.46 µM | GSDME activation / cleavage (western blotting) (GSDME): did not activate GSDME; IC50 (SK-Hep1 cells; Homo sapiens, SK-HEP1, 72 h): 2.3 ± 0.14 µM; IC50 (PLC-PRF5 cells): 2.92 ± 0.32 µM; LDH release levels (HepG2 and SK-Hep1 cells): increased; fold increase in cellular potency (HepG2 cells): ~6.5 fold
CC[C@H](C)[C@H](N)C(=O)NCCCn1cc(/C=C2\S/C(=N\c3ccc(N4CCOCC4)cc3)N(Cc3ccc(F)cc3)C2=O)c2ccccc21 [Tc5] | 4.9 µM | fold increase in cellular potency (HepG2 cells): ~ 3 fold
CC(C)[C@H](N)C(=O)NCCCn1cc(/C=C2\S/C(=N\c3ccccc3)N(Cc3ccc(F)cc3)C2=O)c2ccccc21 [Tc6] | > 100 µM | 
CC(C)[C@H](N)C(=O)NCCCn1cc(/C=C2\S/C(=N\c3ccc(F)cc3)N(Cc3ccc(F)cc3)C2=O)c2ccccc21 [Tc7] | 12.4 µM | 
CC(C)[C@H](N)C(=O)NCCCn1cc(/C=C2\S/C(=N\c3ccc(Cl)cc3)N(Cc3ccc(F)cc3)C2=O)c2ccccc21 [Tc8] | 15.2 µM | 
CC(C)[C@H](N)C(=O)NCCCn1cc(/C=C2\S/C(=N\c3ccc(C(F)(F)F)cc3)N(Cc3ccc(F)cc3)C2=O)c2ccccc21 [Tc9] | 10.8 µM | 
COc1ccc(/N=C2\S/C(=C\c3cn(CCCNC(=O)[C@@H](N)C(C)C)c4ccccc34)C(=O)N2Cc2ccc(F)cc2)cc1 [Tc10] | > 100 µM | 
CC(C)[C@H](N)C(=O)NCCCn1cc(/C=C2\S/C(=N/C3CCCCC3)N(Cc3ccc(F)cc3)C2=O)c2ccccc21 [Tc11] | 20.9 µM | 
CCCC/N=C1\S/C(=C\c2cn(CCCNC(=O)[C@@H](N)C(C)C)c3ccccc23)C(=O)N1Cc1ccc(F)cc1 [Tc12] | 25 µM | 
Cc1ncc2n1-c1ccc(Cl)cc1C(c1ccccc1F)=NC2 [midazolam, reference compound] |  | microsomal CLint at 1 μM ([1]; human): 1200 µL/min/mg; half-life at 1 μM ([1]; mouse): 2.72 min; microsomal CLint at 1 μM ([1]; mouse): 1270 µL/min/mg
